Results taken from the supplement of paper PMC10307832.

How the values were obtained:
Experiment in all cases: relative viability (nuclei count vs DMSO), 5 days (fraction); higher = more cells survive
[1] = test system: RERF-LC-KJ
Summary of the method: (§1)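 Lung cancer cell lines, seeded in 1536-well plates, were treated the following day by pin tool with a single drug or with five library-drug doses (not always all listed) in √10 steps on top of a fixed anchor-drug dose. Cells were fixed and nuclei stained in one step after 5 days, and nuclei were counted. Relative viability is the nuclei count for treated wells divided by that for vehicle wells, reported as medians of duplicate plates.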

[2] = test system: SW 900
Summary of the method: as §1

[3] = test system: ChaGo-K-1
Summary of the method: as §1

[4] = test system: HCC-827
Summary of the method: as §1

[5] = test system: LU99A
Summary of the method: as §1

[6] = test system: NCI-H3122
Summary of the method: as §1

[7] = test system: NCI-H2126
Summary of the method: as §1

[8] = test system: NCI-H2405
Summary of the method: as §1

[9] = test system: LOU-NH91
Summary of the method: as §1

[10] = test system: NCI-H1666
Summary of the method: as §1

[11] = test system: NCI-H1975
Summary of the method: as §1

[12] = test system: SK-LU-1
Summary of the method: as §1

[13] = test system: EMC-BAC-2
Summary of the method: as §1

[14] = test system: NCI-H2085
Summary of the method: as §1

[15] = test system: NCI-H23
Summary of the method: as §1

[16] = test system: HCC-366
Summary of the method: as §1

[17] = test system: LXF-289
Summary of the method: as §1

[18] = test system: SW 1573
Summary of the method: as §1

[19] = test system: LK-2
Summary of the method: as §1

[20] = test system: EPLC-272H
Summary of the method: as §1

[21] = test system: HCC-78
Summary of the method: as §1

[22] = test system: NCI-H1563
Summary of the method: as §1

[23] = test system: LCLC-103H
Summary of the method: as §1

[24] = test system: HCC-44
Summary of the method: as §1

For `Clc1ccc(Nc2nnc(Cc3ccncc3)c3ccccc23)cc1` [Vatalanib] + N=C(N)NC(=N)NCCc1ccccc1 [Phenformin] (partner 250 µM), the relative viability ([1]; first compound 0.04 µM) was 0.479, the relative viability ([1]; first compound 0.1265 µM) was 0.41 and the relative viability ([1]; first compound 0.4 µM) was 0.443. For the same molecule, the relative viability ([1]; first compound 1.265 µM) was 0.341, the relative viability ([1]; first compound 4 µM) was 0.425 and the relative viability ([2]; first compound 0.1265 µM) was 0.689. It also gave a relative viability ([2]; first compound 0.4 µM) of 0.539, a relative viability ([2]; first compound 1.265 µM) of 0.458 and a relative viability ([2]; first compound 4 µM) of 0.544. The relative viability ([3]; first compound 0.04 µM) was 0.453, the relative viability ([3]; first compound 0.1265 µM) was 0.407 and the relative viability ([3]; first compound 0.4 µM) was 0.522. For the same molecule, the relative viability ([3]; first compound 1.265 µM) was 0.432, the relative viability ([3]; first compound 4 µM) was 0.431 and the relative viability ([4]; first compound 0.04 µM) was 0.413. The relative viability ([4]; first compound 0.1265 µM) was 0.418, the relative viability ([4]; first compound 0.4 µM) was 0.304 and the relative viability ([4]; first compound 1.265 µM) was 0.425. For the same molecule, the relative viability ([4]; first compound 4 µM) was 0.378, the relative viability ([5]; first compound 0.04 µM) was 0.839 and the relative viability ([5]; first compound 0.1265 µM) was 0.764. The relative viability ([5]; first compound 0.4 µM) was 1.04, the relative viability ([5]; first compound 1.265 µM) was 0.705 and the relative viability ([5]; first compound 4 µM) was 0.813. The relative viability ([6]; first compound 0.04 µM) was 0.401, the relative viability ([6]; first compound 0.1265 µM) was 0.365 and the relative viability ([6]; first compound 1.265 µM) was 0.316. It also gave a relative viability ([6]; first compound 4 µM) of 0.323, a relative viability ([7]; first compound 0.04 µM) of 0.508 and a relative viability ([7]; first compound 0.1265 µM) of 0.521. For the same molecule, the relative viability ([7]; first compound 0.4 µM) was 0.453, the relative viability ([7]; first compound 1.265 µM) was 0.487 and the relative viability ([7]; first compound 4 µM) was 0.546. The relative viability ([8]; first compound 0.04 µM) was 0.425, the relative viability ([8]; first compound 0.1265 µM) was 0.376 and the relative viability ([8]; first compound 1.265 µM) was 0.391. For the same molecule, the relative viability ([8]; first compound 4 µM) was 0.368, the relative viability ([9]; first compound 0.04 µM) was 0.694 and the relative viability ([9]; first compound 0.1265 µM) was 0.679. It also gave a relative viability ([9]; first compound 1.265 µM) of 0.697, a relative viability ([9]; first compound 4 µM) of 0.668 and a relative viability ([10]; first compound 0.04 µM) of 0.563. The relative viability ([10]; first compound 0.1265 µM) was 0.566, the relative viability ([10]; first compound 0.4 µM) was 0.449 and the relative viability ([10]; first compound 1.265 µM) was 0.519. For the same molecule, the relative viability ([10]; first compound 4 µM) was 0.559, the relative viability ([11]; first compound 0.04 µM) was 0.405 and the relative viability ([11]; first compound 0.1265 µM) was 0.415. It also gave a relative viability ([11]; first compound 0.4 µM) of 0.422, a relative viability ([11]; first compound 1.265 µM) of 0.357 and a relative viability ([11]; first compound 4 µM) of 0.4. It also gave a relative viability ([12]; first compound 0.04 µM) of 0.631, a relative viability ([12]; first compound 0.1265 µM) of 0.462 and a relative viability ([12]; first compound 0.4 µM) of 0.663. The relative viability ([12]; first compound 1.265 µM) was 0.494, the relative viability ([12]; first compound 4 µM) was 0.52 and the relative viability ([13]; first compound 0.04 µM) was 0.511. It also gave a relative viability ([13]; first compound 0.1265 µM) of 0.538, a relative viability ([13]; first compound 0.4 µM) of 0.542 and a relative viability ([13]; first compound 1.265 µM) of 0.497. For the same molecule, the relative viability ([13]; first compound 4 µM) was 0.512, the relative viability ([14]; first compound 0.04 µM) was 0.701 and the relative viability ([14]; first compound 0.1265 µM) was 0.668. It also gave a relative viability ([14]; first compound 0.4 µM) of 0.734, a relative viability ([14]; first compound 1.265 µM) of 0.724 and a relative viability ([14]; first compound 4 µM) of 0.632. For the same molecule, the relative viability ([15]; first compound 0.04 µM) was 0.742, the relative viability ([15]; first compound 0.1265 µM) was 0.719 and the relative viability ([15]; first compound 0.4 µM) was 0.78. The relative viability ([15]; first compound 1.265 µM) was 0.714, the relative viability ([15]; first compound 4 µM) was 0.748 and the relative viability ([16]; first compound 0.04 µM) was 0.597. For the same molecule, the relative viability ([16]; first compound 0.1265 µM) was 0.554, the relative viability ([16]; first compound 0.4 µM) was 0.6 and the relative viability ([16]; first compound 1.265 µM) was 0.575. The relative viability ([16]; first compound 4 µM) was 0.547, the relative viability ([17]; first compound 0.04 µM) was 0.505 and the relative viability ([17]; first compound 0.1265 µM) was 0.465. For the same molecule, the relative viability ([17]; first compound 0.4 µM) was 0.558, the relative viability ([17]; first compound 1.265 µM) was 0.53 and the relative viability ([17]; first compound 4 µM) was 0.539. It also gave a relative viability ([18]; first compound 0.04 µM) of 0.402, a relative viability ([18]; first compound 0.1265 µM) of 0.374 and a relative viability ([18]; first compound 0.4 µM) of 0.368. It also gave a relative viability ([18]; first compound 1.265 µM) of 0.324, a relative viability ([18]; first compound 4 µM) of 0.347 and a relative viability ([19]; first compound 0.04 µM) of 0.408. The relative viability ([19]; first compound 0.1265 µM) was 0.398, the relative viability ([19]; first compound 0.4 µM) was 0.381 and the relative viability ([19]; first compound 1.265 µM) was 0.466. The relative viability ([19]; first compound 4 µM) was 0.393, the relative viability ([20]; first compound 0.04 µM) was 0.324 and the relative viability ([20]; first compound 0.1265 µM) was 0.323. For the same molecule, the relative viability ([20]; first compound 0.4 µM) was 0.275, the relative viability ([20]; first compound 1.265 µM) was 0.349 and the relative viability ([20]; first compound 4 µM) was 0.348. For the same molecule, the relative viability ([21]; first compound 0.04 µM) was 0.589, the relative viability ([21]; first compound 0.1265 µM) was 0.613 and the relative viability ([21]; first compound 0.4 µM) was 0.631. The relative viability ([21]; first compound 1.265 µM) was 0.649, the relative viability ([21]; first compound 4 µM) was 0.575 and the relative viability ([22]; first compound 0.04 µM) was 0.641. It also gave a relative viability ([22]; first compound 0.1265 µM) of 0.673, a relative viability ([22]; first compound 0.4 µM) of 0.666 and a relative viability ([22]; first compound 1.265 µM) of 0.712. For the same molecule, the relative viability ([22]; first compound 4 µM) was 0.639, the relative viability ([23]; first compound 0.04 µM) was 0.339 and the relative viability ([23]; first compound 0.1265 µM) was 0.306. It also gave a relative viability ([23]; first compound 0.4 µM) of 0.373, a relative viability ([23]; first compound 1.265 µM) of 0.363 and a relative viability ([23]; first compound 4 µM) of 0.316. The relative viability ([24]; first compound 0.04 µM) was 0.178, the relative viability ([24]; first compound 0.1265 µM) was 0.257 and the relative viability ([24]; first compound 0.4 µM) was 0.0876. The relative viability ([24]; first compound 1.265 µM) was 0.182 and the relative viability ([24]; first compound 4 µM) was 0.147.
